According to patent US8796268B2, “Heteroaryls and uses thereof” (Millennium Pharmaceuticals, Inc., priority 2010, dated 2014):

What was measured:
Assay type in all cases: biochemical
Human PI3K beta = target: T1, Human PI3K beta (Homo sapiens, UniProt P42338); assay: Human PI3K beta enzyme assay (HTRF); details: concentration not given, b1387 states 1.1 μM for PI3K α and β; for inhibition at 1.1 µM: read-out: p110 beta Percent Inhibition
T1 construct: His (N); host or cells: SF9 insect cells (baculovirus)
How it was run: (§1)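 Compounds were mixed with 25 uM ATP, then with 3.5 uM di-C8 PI(4,5)P2 and His-tagged PI3K isoform (β 5.25 nM, δ 0.75 nM, γ 5 nM) at pH 7.00. After 30 min at room temperature, EDTA stopped the reaction and PIP3 was measured by HTRF over 1 h.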

Human PI3K delta = target: T2, Human PI3K delta (Homo sapiens, UniProt O00329); assay: Human PI3K delta enzyme assay (HTRF); details: concentration not given, b1389 states 1.0 μM for PI3K δ and γ; for inhibition at 1 µM: read-out: p110 delta Percent Inhibition
T2 construct: His (N); host or cells: SF9 insect cells (baculovirus)
How it was run: as §1

Human PI3K gamma = target: T3, Human PI3K gamma (Homo sapiens, UniProt P48736); assay: Human PI3K gamma enzyme assay (HTRF); details: concentration not given, b1389 states 1.0 μM for PI3K δ and γ; for inhibition at 1 µM: read-out: p110 gamma Percent Inhibition
T3 construct: His (N); host or cells: SF9 insect cells (baculovirus)
How it was run: as §1

Human PI3K alpha = target: T4, Human PI3K alpha (Homo sapiens, UniProt P42336); assay: Human PI3K alpha enzyme assay (HTRF); details: concentration not given, b1387 states 1.1 μM for PI3K α and β; for inhibition at 1.1 µM: read-out: p110 alpha Percent Inhibition
T4 construct: His (N); host or cells: SF9 insect cells (baculovirus)
T4 sequence (P42336 whole entry): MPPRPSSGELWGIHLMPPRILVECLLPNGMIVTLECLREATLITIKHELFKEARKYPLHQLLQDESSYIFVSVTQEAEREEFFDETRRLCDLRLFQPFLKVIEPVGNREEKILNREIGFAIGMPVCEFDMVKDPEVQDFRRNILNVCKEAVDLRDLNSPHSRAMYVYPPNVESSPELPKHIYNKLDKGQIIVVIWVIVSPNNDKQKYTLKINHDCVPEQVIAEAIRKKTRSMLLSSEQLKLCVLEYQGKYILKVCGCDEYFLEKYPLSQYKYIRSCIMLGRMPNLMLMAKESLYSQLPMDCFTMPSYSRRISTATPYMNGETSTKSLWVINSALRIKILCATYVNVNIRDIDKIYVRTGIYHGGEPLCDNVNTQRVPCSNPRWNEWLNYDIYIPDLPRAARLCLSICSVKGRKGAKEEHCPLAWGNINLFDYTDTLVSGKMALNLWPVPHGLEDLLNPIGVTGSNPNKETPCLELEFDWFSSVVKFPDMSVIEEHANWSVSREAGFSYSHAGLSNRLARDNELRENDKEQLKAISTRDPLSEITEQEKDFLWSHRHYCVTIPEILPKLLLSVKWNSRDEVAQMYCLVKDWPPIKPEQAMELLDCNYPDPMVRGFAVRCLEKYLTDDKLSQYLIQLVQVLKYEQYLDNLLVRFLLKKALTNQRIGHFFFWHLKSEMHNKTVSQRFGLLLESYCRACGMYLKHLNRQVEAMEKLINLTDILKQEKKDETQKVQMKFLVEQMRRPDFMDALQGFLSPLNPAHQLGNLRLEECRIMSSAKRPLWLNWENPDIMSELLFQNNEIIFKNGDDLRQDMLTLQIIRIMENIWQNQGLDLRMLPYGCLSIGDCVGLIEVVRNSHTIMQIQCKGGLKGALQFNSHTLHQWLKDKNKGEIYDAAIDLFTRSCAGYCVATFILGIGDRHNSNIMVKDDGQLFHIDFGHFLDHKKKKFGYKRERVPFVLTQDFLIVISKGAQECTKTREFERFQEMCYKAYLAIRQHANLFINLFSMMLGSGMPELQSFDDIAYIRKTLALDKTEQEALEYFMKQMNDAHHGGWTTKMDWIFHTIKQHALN
T4 sequence (P27986 whole entry partner): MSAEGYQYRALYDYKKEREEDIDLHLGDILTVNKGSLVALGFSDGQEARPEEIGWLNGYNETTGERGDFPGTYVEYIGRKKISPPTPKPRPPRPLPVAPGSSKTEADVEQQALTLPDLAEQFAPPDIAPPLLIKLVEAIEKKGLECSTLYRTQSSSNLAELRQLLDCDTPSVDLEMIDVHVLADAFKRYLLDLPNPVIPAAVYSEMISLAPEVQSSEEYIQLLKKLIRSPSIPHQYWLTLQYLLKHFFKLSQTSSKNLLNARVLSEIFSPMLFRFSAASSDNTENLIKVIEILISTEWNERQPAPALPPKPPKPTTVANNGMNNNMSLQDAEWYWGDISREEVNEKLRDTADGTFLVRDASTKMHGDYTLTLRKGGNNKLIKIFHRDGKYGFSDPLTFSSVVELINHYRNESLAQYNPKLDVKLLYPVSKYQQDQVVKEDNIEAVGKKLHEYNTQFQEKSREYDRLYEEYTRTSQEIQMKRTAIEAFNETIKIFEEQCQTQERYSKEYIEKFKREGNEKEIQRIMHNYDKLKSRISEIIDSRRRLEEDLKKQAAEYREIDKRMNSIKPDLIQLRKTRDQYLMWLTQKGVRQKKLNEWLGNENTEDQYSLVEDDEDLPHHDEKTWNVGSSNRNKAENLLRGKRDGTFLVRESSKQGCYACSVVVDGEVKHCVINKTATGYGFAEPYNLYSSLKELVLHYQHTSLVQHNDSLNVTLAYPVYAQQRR

T3 sequence (P48736 whole entry): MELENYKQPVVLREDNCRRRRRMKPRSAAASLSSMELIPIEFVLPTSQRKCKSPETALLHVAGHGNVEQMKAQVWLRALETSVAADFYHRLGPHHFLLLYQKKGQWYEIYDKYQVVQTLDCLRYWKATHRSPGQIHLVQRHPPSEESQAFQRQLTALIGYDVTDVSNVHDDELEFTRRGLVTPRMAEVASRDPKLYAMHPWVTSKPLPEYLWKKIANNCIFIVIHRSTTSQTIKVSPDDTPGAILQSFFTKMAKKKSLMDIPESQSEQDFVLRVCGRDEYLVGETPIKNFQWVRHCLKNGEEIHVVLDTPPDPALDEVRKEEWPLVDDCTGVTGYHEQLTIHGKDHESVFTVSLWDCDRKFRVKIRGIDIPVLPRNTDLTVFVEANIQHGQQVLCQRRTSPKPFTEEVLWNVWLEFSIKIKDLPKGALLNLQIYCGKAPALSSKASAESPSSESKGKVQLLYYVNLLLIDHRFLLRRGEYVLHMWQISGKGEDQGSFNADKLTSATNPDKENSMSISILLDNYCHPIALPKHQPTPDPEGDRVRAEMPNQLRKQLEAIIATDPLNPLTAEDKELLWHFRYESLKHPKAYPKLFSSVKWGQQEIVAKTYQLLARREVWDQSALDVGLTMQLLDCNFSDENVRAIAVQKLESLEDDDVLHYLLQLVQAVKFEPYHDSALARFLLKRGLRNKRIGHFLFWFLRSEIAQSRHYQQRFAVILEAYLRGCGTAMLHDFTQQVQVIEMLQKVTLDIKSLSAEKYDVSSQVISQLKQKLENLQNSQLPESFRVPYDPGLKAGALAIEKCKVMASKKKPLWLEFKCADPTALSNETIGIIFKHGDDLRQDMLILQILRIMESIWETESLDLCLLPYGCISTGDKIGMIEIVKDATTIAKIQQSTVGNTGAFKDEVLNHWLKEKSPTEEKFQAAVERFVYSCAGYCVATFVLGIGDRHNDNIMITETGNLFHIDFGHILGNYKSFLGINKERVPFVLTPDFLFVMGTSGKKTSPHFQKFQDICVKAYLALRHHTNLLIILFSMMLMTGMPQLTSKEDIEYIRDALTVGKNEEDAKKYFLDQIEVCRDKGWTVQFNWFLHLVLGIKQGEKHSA
T1 sequence (P42338 whole entry): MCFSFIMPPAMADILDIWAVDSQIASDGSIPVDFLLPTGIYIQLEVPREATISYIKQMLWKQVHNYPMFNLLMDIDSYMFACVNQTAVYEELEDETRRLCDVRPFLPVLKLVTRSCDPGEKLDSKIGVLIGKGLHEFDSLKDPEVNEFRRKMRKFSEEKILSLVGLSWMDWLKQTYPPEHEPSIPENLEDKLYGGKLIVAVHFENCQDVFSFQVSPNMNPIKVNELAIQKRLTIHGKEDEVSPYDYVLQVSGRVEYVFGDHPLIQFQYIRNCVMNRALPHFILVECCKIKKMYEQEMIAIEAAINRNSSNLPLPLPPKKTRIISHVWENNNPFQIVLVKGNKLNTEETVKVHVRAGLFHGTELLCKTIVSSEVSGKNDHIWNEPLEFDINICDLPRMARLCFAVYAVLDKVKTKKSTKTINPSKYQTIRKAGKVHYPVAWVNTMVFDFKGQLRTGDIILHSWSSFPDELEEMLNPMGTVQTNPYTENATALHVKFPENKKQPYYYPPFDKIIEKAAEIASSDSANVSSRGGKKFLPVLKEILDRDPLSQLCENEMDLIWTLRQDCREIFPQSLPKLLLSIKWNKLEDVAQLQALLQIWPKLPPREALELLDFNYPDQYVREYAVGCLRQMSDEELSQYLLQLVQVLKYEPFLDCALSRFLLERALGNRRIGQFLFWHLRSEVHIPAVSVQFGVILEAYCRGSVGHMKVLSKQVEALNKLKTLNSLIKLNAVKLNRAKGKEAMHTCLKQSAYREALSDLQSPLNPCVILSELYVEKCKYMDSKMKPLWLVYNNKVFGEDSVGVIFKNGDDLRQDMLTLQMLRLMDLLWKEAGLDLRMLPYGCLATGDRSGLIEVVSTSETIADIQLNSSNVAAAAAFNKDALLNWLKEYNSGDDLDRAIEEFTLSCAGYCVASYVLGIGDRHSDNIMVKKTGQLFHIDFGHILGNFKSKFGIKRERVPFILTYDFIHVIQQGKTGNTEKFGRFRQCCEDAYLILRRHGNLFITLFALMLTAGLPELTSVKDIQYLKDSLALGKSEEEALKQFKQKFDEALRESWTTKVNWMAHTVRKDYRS
T1 sequence (P27986 whole entry partner): as the sequence (P27986 whole entry partner) above
T2 sequence (O00329 whole entry): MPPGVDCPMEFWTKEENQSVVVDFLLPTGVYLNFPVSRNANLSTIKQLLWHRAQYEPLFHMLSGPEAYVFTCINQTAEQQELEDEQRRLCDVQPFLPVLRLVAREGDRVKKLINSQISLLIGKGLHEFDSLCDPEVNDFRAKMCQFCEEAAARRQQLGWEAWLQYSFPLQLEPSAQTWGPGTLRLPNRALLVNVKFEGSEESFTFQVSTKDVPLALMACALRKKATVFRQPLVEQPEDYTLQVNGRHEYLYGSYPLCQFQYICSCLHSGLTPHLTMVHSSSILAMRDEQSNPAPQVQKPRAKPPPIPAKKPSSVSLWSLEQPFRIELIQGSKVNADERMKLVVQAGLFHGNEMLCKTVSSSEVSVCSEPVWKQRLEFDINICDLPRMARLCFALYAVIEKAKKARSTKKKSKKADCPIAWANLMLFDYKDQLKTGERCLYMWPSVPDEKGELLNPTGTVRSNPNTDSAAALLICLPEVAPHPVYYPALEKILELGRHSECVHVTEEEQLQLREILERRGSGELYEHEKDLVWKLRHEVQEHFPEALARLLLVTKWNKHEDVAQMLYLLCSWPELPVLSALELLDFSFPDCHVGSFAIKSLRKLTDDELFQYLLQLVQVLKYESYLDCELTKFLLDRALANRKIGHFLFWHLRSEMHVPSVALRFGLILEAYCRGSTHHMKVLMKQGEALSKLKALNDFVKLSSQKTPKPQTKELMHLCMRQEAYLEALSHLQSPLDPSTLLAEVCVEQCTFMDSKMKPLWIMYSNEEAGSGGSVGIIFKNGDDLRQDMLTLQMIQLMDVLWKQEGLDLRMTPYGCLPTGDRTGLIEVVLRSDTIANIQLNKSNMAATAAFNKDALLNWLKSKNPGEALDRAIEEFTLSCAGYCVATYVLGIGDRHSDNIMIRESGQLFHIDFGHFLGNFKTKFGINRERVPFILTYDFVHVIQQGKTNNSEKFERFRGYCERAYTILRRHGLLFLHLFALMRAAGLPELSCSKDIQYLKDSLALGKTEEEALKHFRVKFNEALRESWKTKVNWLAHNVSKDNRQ
T2 sequence (P27986 whole entry partner): as the sequence (P27986 whole entry partner) above

SMILES | inhibition at 1.1 µM (Human PI3K beta) [%] | inhibition at 1 µM (Human PI3K delta) [%] | inhibition at 1 µM (Human PI3K gamma) [%] | inhibition at 1.1 µM (Human PI3K alpha) [%] | p110 beta Percent Inhibition (Human PI3K beta) [%] | p110 delta Percent Inhibition (Human PI3K delta) [%] | p110 gamma Percent Inhibition (Human PI3K gamma) [%] | p110 alpha Percent Inhibition (Human PI3K alpha) [%]
N#Cc1c(N2CCOCC2)sc(C(N)=O)c1Cc1ccc2ccccc2c1 [Compound 327, 4-cyano-5-(morpholin-4-yl)-3-(2-naphthylmethyl)thiophene-2-carboxamide] | 109 | 109 | 22 | 34 |  |  |  | 
OC(c1cnc2ccccc2n1)c1cc(-c2ccncc2)sc1-c1nnc[nH]1 (centres unmarked) [Compound 263] | 105 | 84 | 43 | 48 |  |  |  | 
OC(c1ccccc1Cl)c1cc(-c2ccncc2)sc1-c1nnc[nH]1 (centres unmarked) [Compound 217] | 74 | 60 | 24 | 30 |  |  |  | 
OC(c1ccc(-c2cccnc2)cc1)c1cc(-c2ccncc2)sc1-c1nnc[nH]1 (centres unmarked) [Compound 214] | 84 | 46 | 14 | 46 |  |  |  | 
N#Cc1c(N2CCOCC2)sc(C(=O)O)c1Cc1cc2ccc(Cl)cc2[nH]1 [Compound 359] | 109 | 102 | 64 | 90 |  |  |  | 
c1ccc2cc(Cc3nc(N4CCOCC4)sc3-c3nnn[nH]3)ccc2c1 [Compound 360, 4-[4-(2-naphthylmethyl)-5-(1H-tetrazol-5-yl)-1,3-thiazol-2-yl]morpholine] |  |  |  |  | 106 | 110 | 49 | 30
OC(c1ccccc1F)c1cc(-c2ccncc2)sc1-c1nnc[nH]1 (centres unmarked) [Compound 155] | 64 | 53 | 28 | 29 |  |  |  | 
CC(c1ccc(Cl)c(Cl)c1)c1c(C(=O)O)sc(N2CCOCC2)c1C#N (centres unmarked) [Compound 366] |  |  |  |  | 113 | 113 | 77 | 66
CC(=O)Nc1cc(-c2cc(C(NCC(F)(F)F)c3ccc(Cl)cc3)c(-c3nnc[nH]3)s2)ccn1 (centres unmarked) [Compound 135] | 87 | 99 | 8 | 78 |  |  |  | 
OC(c1cc(-c2ccncc2)sc1-c1nnc[nH]1)c1cccc2ccccc12 (centres unmarked) [Compound 228] | 94 | 57 | 11 | 24 |  |  |  | 
OC(c1nc(-c2ccccc2)cs1)c1cc(-c2ccncc2)sc1-c1nnc[nH]1 (centres unmarked) [Compound 133] | 101 | 74 | 26 | 84 |  |  |  | 
N#Cc1c(N2CCOCC2)sc(C(=O)O)c1Cc1cc2cc(F)ccc2[nH]1 [Compound 312] | 105 | 92 | 47 | 64 |  |  |  | 
N#Cc1c(N2CCOCC2)sc(C(=O)O)c1C(N)c1ccc(Cl)c(Cl)c1 (centres unmarked) [Compound 291] | 107 | 105 | 57 | 36 |  |  |  | 
N#Cc1c(N2CCOCC2)sc(C(=O)O)c1C(F)(F)c1ccc(Cl)cc1 [Compound 358] | 43 | 51 | 32 | 13 |  |  |  | 
CNC1CN(C(c2ccc(Cl)cc2)c2cc(-c3ccnc(NC(C)=O)c3)sc2-c2nnc[nH]2)C1 (centres unmarked) [Compound 170] | 106 | 105 | 26 | 84 |  |  |  | 
CC(c1ccc2cc(F)ccc2c1)c1c(C(=O)O)sc(N2CCOCC2)c1C#N (centres unmarked) [Compound 369] |  |  |  |  | 115 | 109 | 65 | 109
CN[C@H]1CCN(C(c2ccc(Cl)cc2)c2cc(-c3ccnc(NC(C)=O)c3)sc2-c2nnc[nH]2)C1 (some centres unmarked) [Compound 163] | 110 | 106 | 25 | 97 |  |  |  | 
O=C(O)c1sc(N2CCOCC2)nc1Cc1cc(F)c2ccccc2c1 [Compound 338] | 110 | 109 | 73 | 67 |  |  |  | 
N#Cc1c(-c2ccnnc2)sc(-c2nnc[nH]2)c1C(c1ccc(Cl)cc1)N1CCNCC1 (centres unmarked) [Compound 227] | 76 | 24 | 3 | -2 |  |  |  | 

SMILES | inhibition at 1.1 µM (Human PI3K beta) [%] | inhibition at 1 µM (Human PI3K delta) [%] | inhibition at 1 µM (Human PI3K gamma) [%] | inhibition at 1.1 µM (Human PI3K alpha) [%] | p110 beta Percent Inhibition (Human PI3K beta) [%] | p110 delta Percent Inhibition (Human PI3K delta) [%] | p110 gamma Percent Inhibition (Human PI3K gamma) [%] | p110 alpha Percent Inhibition (Human PI3K alpha) [%]
O=C(O)c1sc(N2CCOCC2)nc1Cc1ccc2cc[nH]c2c1 [Compound 328] | 98 | 83 | 48 | 11 |  |  |  | 
CC(c1ccc2ccccc2c1)c1nc(N2CCOCC2)sc1C(=O)O (centres unmarked) [Compound 346] | 98 | 98 | 23 | 21 |  |  |  | 
OC(c1cccc(C(F)(F)F)c1)c1cc(-c2ccncc2)sc1-c1nnc[nH]1 (centres unmarked) [Compound 159] | 61 | 31 | 5 | 18 |  |  |  | 
CC(=O)Nc1cc(-c2cc(C(c3ccc(Cl)cc3)N3CCC3)c(-c3nnc[nH]3)s2)ccn1 (centres unmarked) [Compound 151] | 105 | 108 | 17 | 72 |  |  |  | 
COc1ccc(C(O)c2cc(-c3ccncc3)sc2-c2nnc[nH]2)cn1 (centres unmarked) [Compound 272] | 96 | 70 | 10 | 70 |  |  |  | 
CC(=O)Nc1cc(-c2cc(C(c3ccc(Cl)cc3)N3CC[C@@H](O)C3)c(-c3nnc[nH]3)s2)ccn1 (some centres unmarked) [Compound 212] | 109 | 112 | 38 | 87 |  |  |  | 
OC(c1ccc(F)cc1F)c1cc(-c2ccncc2)sc1-c1nnc[nH]1 (centres unmarked) [Compound 162] | 93 | 83 | 33 | 38 |  |  |  | 
CC(=O)Nc1cc(-c2cc(C(c3ccc(Cl)cc3)N3CC(N(C)C)C3)c(-c3nnc[nH]3)s2)ccn1 (centres unmarked) [Compound 181, N-{4-[4-{(4-chlorophenyl)[3-(dimethylamino)azetidin-1-yl]-methyl}-5-(4H-1,2,4-triazol-3-yl)-2-thienyl]pyridin-2-yl}acetamide] |  |  |  |  | 91 | 108 | 35 | 85
OC(c1ccc2ccccc2c1)c1cc(-c2ccncc2)sc1-c1nnc[nH]1 (centres unmarked) [Compound 208] |  |  |  |  | 108 | 107 | 47 | 42
O=C(O)c1sc(N2CCOCC2)nc1Cc1ccc2ccncc2c1 [Compound 344] | 103 | 102 | 59 | 24 |  |  |  | 
N#Cc1c(-c2ccnnc2)sc(-c2nnc[nH]2)c1C(c1ccc2ccccc2c1)N1CCNCC1 (centres unmarked) [Compound 172] | 101 | 60 | 6 | 28 |  |  |  | 
CC(=O)Nc1cc(-c2cc(C(OCC3CCCC3)c3ccc(Cl)cc3)c(-c3nnc[nH]3)s2)ccn1 (centres unmarked) [Compound 173] | 67 | 83 | 3 | 69 |  |  |  | 
OC(c1ccc(Br)cc1)c1cc(-c2ccncc2)sc1-c1nnc[nH]1 (centres unmarked) [Compound 231] | 104 | 77 | 47 | 34 |  |  |  | 
Nc1cc(-c2cc(C(c3ccc(Cl)cc3)N3CCNCC3)c(-c3nnc[nH]3)s2)ccn1 (centres unmarked) [Compound 254] | 96 | 91 | 8 | 49 |  |  |  | 
COc1ccc2cc(Cc3c(C(=O)O)sc(N4CCOCC4)c3C#N)ccc2c1 [Compound 301] | 107 | 89 | 49 | 55 |  |  |  | 
CC(=O)Nc1cc(-c2cc(C(c3ccc(Cl)cc3)N3CC4(COC4)C3)c(-c3nnc[nH]3)s2)ccn1 (centres unmarked) [Compound 247] | 105 | 104 | 21 | 83 |  |  |  | 
Cc1ccc(F)c(C(O)c2cc(-c3ccncc3)sc2-c2nnc[nH]2)c1 (centres unmarked) [Compound 188] | 94 | 82 | 36 | 47 |  |  |  | 
OC(c1ccccc1C(F)(F)F)c1cc(-c2ccncc2)sc1-c1nnc[nH]1 (centres unmarked) [Compound 193] | 69 | 46 | 13 | 26 |  |  |  | 
NS(=O)(=O)c1sc(N2CCOCC2)nc1Cc1ccc2ccccc2c1 [Compound 329, 2-morpholino-4-(naphthalen-2-ylmethyl)thiazole-5-sulfonamide] | 112 | 80 | 29 | 39 |  |  |  | 
